Target: T1, Human orexin receptor type 2 (Homo sapiens, UniProt O43614)
T1 construct: expressed in transfected cells; host or cells: CHO cells (transient expression)
T1 sequence (O43614 1-444): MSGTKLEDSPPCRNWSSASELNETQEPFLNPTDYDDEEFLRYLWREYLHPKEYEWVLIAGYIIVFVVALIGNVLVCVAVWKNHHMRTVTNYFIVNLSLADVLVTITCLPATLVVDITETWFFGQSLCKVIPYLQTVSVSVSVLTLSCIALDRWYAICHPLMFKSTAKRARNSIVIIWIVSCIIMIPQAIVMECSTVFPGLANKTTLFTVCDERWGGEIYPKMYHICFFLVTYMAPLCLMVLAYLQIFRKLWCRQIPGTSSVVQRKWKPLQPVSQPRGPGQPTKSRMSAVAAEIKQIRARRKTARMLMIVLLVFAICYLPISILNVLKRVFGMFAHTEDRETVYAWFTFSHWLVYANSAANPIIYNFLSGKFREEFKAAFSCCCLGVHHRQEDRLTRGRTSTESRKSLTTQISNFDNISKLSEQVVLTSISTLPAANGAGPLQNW
Experiment: Test 2: Evaluation of agonist activity for orexin receptor type 2 (aequorin luminescence, intracellular calcium mobilization in CHO cells)
Type: cell-based
Conditions: relative percentage of luminescence for the luminescence (100%) of Orexin A (100 pM); CHO cells transiently expressing human orexin receptor type 2 and apoaequorin; Orexin A Lot. 671009
Method in brief: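 CHO cells transiently co-expressing the receptor and apoaequorin, incubated 16–22 h, were loaded 2 h at room temperature with 1 μM coelenterazine hcp (final). Compounds in Hanks/20 mM HEPES/0.1% BSA (0.1% DMSO final) were added and the calcium luminescence was read and expressed as % of Orexin A (100 pM).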

Structure (SMILES) | agonist activity (%)
CC1(c2noc([C@@H]3C[C@@H]3F)n2)CCN(C(=O)N[C@@H]2[C@@H](O[C@H]3CCN(CC4(C(F)(F)F)CC4)C3)CCCC2(F)F)CC1 [Example 135, N-[(1R,6S)-2,2-difluoro-6-{[(3S)-1-{[1-(trifluoromethyl)cyclopropyl]methyl}pyrrolidin-3-yl]oxy}cyclohexyl]-4-{5-[(1S,2S)-2-fluorocyclopropyl]-1,2,4-oxadiazol-3-yl}-4-methylpiperidine-1-carboxamide] | 396%
CN(CC1(F)CC1)C1CCN([C@H]2CCCC(F)(F)[C@@H]2NC(=O)N2CCC(C)(c3noc([C@@H]4C[C@@H]4F)n3)CC2)CC1 [Example 136, N-[(1R,6S)-2,2-difluoro-6-(4-{[(1-fluorocyclopropyl)methyl](methyl)amino}piperidin-1-yl)cyclohexyl]-4-{5-[(1S,2S)-2-fluorocyclopropyl]-1,2,4-oxadiazol-3-yl}-4-methylpiperidine-1-carboxamide] | 346%
CN(CC1CC1)[C@H]1CCN([C@H]2CCCC(F)(F)[C@@H]2NC(=O)N2CCC(C)(c3noc([C@@H]4C[C@@H]4F)n3)CC2)C1 [Example 137, N-[(1R,6S)-6-{(3S)-3-[(cyclopropylmethyl)(methyl)amino]pyrrolidin-1-yl}-2,2-difluorocyclohexyl]-4-{5-[(1S,2S)-2-fluorocyclopropyl]-1,2,4-oxadiazol-3-yl}-4-methylpiperidine-1-carboxamide] | 376%
CN(CC1CC1)[C@H]1CCN([C@H]2CCCC(F)(F)[C@@H]2NC(=O)N2CCC(C)(c3noc(C4CC4)n3)CC2)C1 [Example 138, N-[(1R,6S)-6-{(3S)-3-[(cyclopropylmethyl)(methyl)amino]pyrrolidin-1-yl}-2,2-difluorocyclohexyl]-4-(5-cyclopropyl-1,2,4-oxadiazol-3-yl)-4-methylpiperidine-1-carboxamide] | 385%
CN(CC1(C(F)(F)F)CC1)C1CCN([C@H]2CCCC(F)(F)[C@@H]2NC(=O)N2CCC(C)(c3noc([C@@H]4C[C@@H]4F)n3)CC2)CC1 [Example 140, N-{(1R,6S)-2,2-difluoro-6-[4-(methyl{[1-(trifluoromethyl)cyclopropyl]methyl}amino)piperidin-1-yl]cyclohexyl}-4-{5-[(1S,2S)-2-fluorocyclopropyl]-1,2,4-oxadiazol-3-yl}-4-methylpiperidine-1-carboxamide] | 249%
CN(CC1CC1)[C@H]1CCCN([C@H]2CCCC(F)(F)[C@@H]2NC(=O)N2CCC(C)(c3noc([C@@H]4C[C@@H]4F)n3)CC2)CC1 [Example 144, N-[(1R,6S)-6-{(4S)-4-[(cyclopropylmethyl)(methyl)amino]azepan-1-yl}-2,2-difluorocyclohexyl]-4-{5-[(1S,2S)-2-fluorocyclopropyl]-1,2,4-oxadiazol-3-yl}-4-methylpiperidine-1-carboxamide] | 399%
CN(CC1CC1)[C@@H]1CCCN([C@H]2CCCC(F)(F)[C@@H]2NC(=O)N2CCC(C)(c3noc([C@@H]4C[C@@H]4F)n3)CC2)CC1 [Example 145, N-[(1R,6S)-6-{(4R)-4-[(cyclopropylmethyl)(methyl)amino]azepan-1-yl}-2,2-difluorocyclohexyl]-4-{5-[(1S,2S)-2-fluorocyclopropyl]-1,2,4-oxadiazol-3-yl}-4-methylpiperidine-1-carboxamide] | 403%
CC(C)N1CCN([C@H]2CCCC(C)(C)[C@@H]2NC(=O)N2CCC(C)(c3noc(C4CC4)n3)CC2)CC1 [Example 147, 4-(5-cyclopropyl-1,2,4-oxadiazol-3-yl)-N-{(1S,6S)-2,2-dimethyl-6-[4-(propan-2-yl)piperazin-1-yl]cyclohexyl}-4-methylpiperidine-1-carboxamide] | 373%
CN(CC1CC1)C1CN([C@H]2CCCC(F)(F)[C@@H]2NC(=O)N2CCC(C)(c3noc([C@@H]4C[C@@H]4F)n3)CC2)C1 [Example 149, N-[(1R,6S)-6-{3-[(cyclopropylmethyl)(methyl)amino]azetidin-1-yl}-2,2-difluorocyclohexyl]-4-{5-[(1S,2S)-2-fluorocyclopropyl]-1,2,4-oxadiazol-3-yl}-4-methylpiperidine-1-carboxamide] | 419%

Continued, values first:

agonist activity (%) | Structure (SMILES)
444% | CC(C)(F)CN1CC[C@H](O[C@H]2CCCC(F)(F)[C@@H]2NC(=O)N2CCC(C)(c3noc([C@@H]4C[C@@H]4F)n3)CC2)C1 [Example 143, N-[(1R,6S)-2,2-difluoro-6-{[(3S)-1-(2-fluoro-2-methylpropyl)pyrrolidin-3-yl]oxy}cyclohexyl]-4-{5-[(1S,2S)-2-fluorocyclopropyl]-1,2,4-oxadiazol-3-yl}-4-methylpiperidine-1-carboxamide]
23% | CC(C)N1CCN([C@H]2CCCC(F)(F)[C@@H]2N(C)C(=O)N2CCC(C)(c3noc([C@@H]4C[C@@H]4F)n3)CC2)CC1 [Example 146, N-{(1R,6S)-2,2-difluoro-6-[4-(propan-2-yl)piperazin-1-yl]cyclohexyl}-4-{5-[(1S,2S)-2-fluorocyclopropyl]-1,2,4-oxadiazol-3-yl}-N,4-dimethylpiperidine-1-carboxamide]
391% | CC(C)N(C)C1CN([C@H]2CCCC(F)(F)[C@@H]2NC(=O)N2CCC(C)(c3noc([C@@H]4C[C@@H]4F)n3)CC2)C1 [Example 148, N-[(1R,6S)-2,2-difluoro-6-{3-[methyl(propan-2-yl)amino]azetidin-1-yl}cyclohexyl]-4-{5-[(1S,2S)-2-fluorocyclopropyl]-1,2,4-oxadiazol-3-yl}-4-methylpiperidine-1-carboxamide]
437% | CC1(CN2CC[C@H](O[C@H]3CCCC(F)(F)[C@@H]3NC(=O)N3CCC(C)(c4noc([C@@H]5C[C@@H]5F)n4)CC3)C2)COC1 [Example 150, N-[(1R,6S)-2,2-difluoro-6-({(3S)-1-[(3-methyloxetan-3-yl)methyl]pyrrolidin-3-yl}oxy)cyclohexyl]-4-{5-[(1S,2S)-2-fluorocyclopropyl]-1,2,4-oxadiazol-3-yl}-4-methylpiperidine-1-carboxamide]
470% | CC(C)N1CCCN([C@H]2CCCC(F)(F)[C@@H]2NC(=O)N2CCC(C)(c3noc([C@@H]4C[C@@H]4F)n3)CC2)CC1 [Example 152, N-{(1R,6S)-2,2-difluoro-6-[4-(propan-2-yl)-1,4-diazepan-1-yl]cyclohexyl}-4-{5-[(1S,2S)-2-fluorocyclopropyl]-1,2,4-oxadiazol-3-yl}-4-methylpiperidine-1-carboxamide]
350% | CC(C)N1CCN(C(=O)O[C@H]2CCCC(F)(F)[C@@H]2NC(=O)N2CCC(C)(c3noc([C@@H]4C[C@@H]4F)n3)CC2)CC1 [Example 153, (1S,2R)-3,3-difluoro-2-[(4-{5-[(1S,2S)-2-fluorocyclopropyl]-1,2,4-oxadiazol-3-yl}-4-methylpiperidine-1-carbonyl)amino]cyclohexyl 4-(propan-2-yl)piperazine-1-carboxylate]
493% | CC(C)N1CCC(S[C@H]2CCCC(F)(F)[C@@H]2NC(=O)N2CCC(C)(c3noc([C@@H]4C[C@@H]4F)n3)CC2)CC1 [Example 154, N-[(1S,6S)-2,2-difluoro-6-{[1-(propan-2-yl)piperidin-4-yl]sulfanyl}cyclohexyl]-4-{5-[(1S,2S)-2-fluorocyclopropyl]-1,2,4-oxadiazol-3-yl}-4-methylpiperidine-1-carboxamide]
167% | CC(C)N1CCC(S(=O)(=O)[C@H]2CCCC(F)(F)[C@@H]2NC(=O)N2CCC(C)(c3noc([C@@H]4C[C@@H]4F)n3)CC2)CC1 [Example 155, N-{(1S,6S)-2,2-difluoro-6-[1-(propan-2-yl)piperidine-4-sulfonyl]cyclohexyl}-4-{5-[(1S,2S)-2-fluorocyclopropyl]-1,2,4-oxadiazol-3-yl}-4-methylpiperidine-1-carboxamide]
323% | CC(C)N1CCN([C@H]2CCC[C@H](F)[C@@H]2NC(=O)N2CCC(C)(c3noc([C@@H]4C[C@@H]4F)n3)CC2)CC1 [Example 156]

Same assay, conditions: relative percentage of luminescence for the luminescence (100%) of Orexin A (100 pM); CHO cells transiently expressing human orexin receptor type 2 and apoaequorin; Orexin A Lot. 671009; 0.0001 µM

Structure (SMILES) | agonist activity (%)
CN(CC1CC1)C1C[C@H]2CC[C@@H](C1)N2[C@H]1CCCC(F)(F)[C@@H]1NC(=O)N1CCC(C)(c2noc([C@@H]3C[C@@H]3F)n2)CC1 (stereo partly drawn) [Example 141, N-[(1R,6S)-6-{(1R,3R,5S)-3-[(cyclopropylmethyl)(methyl)amino]-8-azabicyclo[3.2.1]octan-8-yl}-2,2-difluorocyclohexyl]-4-{5-[(1S,2S)-2-fluorocyclopropyl]-1,2,4-oxadiazol-3-yl}-4-methylpiperidine-1-carboxamide] | 405%
CN(CC1CC1)C1C[C@H]2CC[C@@H](C1)N2[C@H]1CCCC(F)(F)[C@@H]1NC(=O)N1CCC(C)(c2noc([C@@H]3C[C@@H]3F)n2)CC1 (stereo partly drawn) [Example 142, N-[(1R,6S)-6-{(1R,3S,5S)-3-[(cyclopropylmethyl)(methyl)amino]-8-azabicyclo[3.2.1]octan-8-yl}-2,2-difluorocyclohexyl]-4-{5-[(1S,2S)-2-fluorocyclopropyl]-1,2,4-oxadiazol-3-yl}-4-methylpiperidine-1-carboxamide] | 407%
